Measurements as given in patent US7691889B2, “Antimycobacterial compounds” (Lupin Limited, priority 2002, dated 2010).
In brackets after ≈: the same amount, converted by molar mass.

System: M. tuberculosis clinical isolates, resistant
Assay: microbe, parasite or virus in culture
Assay type: cell-based, Mycobacterium tuberculosis
Settings: for MIC against Clinical isolates Resistant: Table I, agar dilution; for MIC: Mycobacterium tuberculosis, read-out: MIC against Clinical isolates Resistant

Compound | MIC against Clinical isolates Resistant | other results
CC(C)Cc1ccc(C(=O)CCC(=O)NC[C@H]2CN(c3ccc(N4CCOCC4)c(F)c3)C(=O)O2)cc1 [Compound 17] | 0.5 to 1.0 µg/mL | –
O=C(CCC(=O)c1ccc2ccccc2c1)NC[C@H]1CN(c2ccc([N+]3([O-])CCOCC3)c(F)c2)C(=O)O1 [Compound 30, (S)-N-[[3-(3-fluoro-4-morpholinylphenyl)-2-oxo-5-oxazolidinyl]methyl]-4-(4-2-naphthyl)-4-oxobutanamide-N-oxide] | 0.5 to 2 µg/mL | MIC M. tuberculosis Resistant (Table II): 0.50 to 2.0 µg/mL
CC(=O)Nc1ccc(C(=O)CCC(=O)NC[C@H]2CN(c3ccc(-c4nc[nH]n4)c(F)c3)C(=O)O2)cc1 [Compound 50, (S)-N-[[3-(3-fluoro-4-(1,2,4-triazolyl)phenyl)-2-oxo-5-oxazolidinyl]methyl]-4-(4-acetamidophenyl)-4-oxobutanamide] | – | MIC: 2 to 4 µg/mL (≈ 4.04 to 8.09 µM)
Cc1ccc(C(=O)CCC(=O)NC[C@H]2CN(c3ccc(N4CCOCC4)c(F)c3)C(=O)O2)cc1 [Compound 2, (S)-N-[[3-(3-fluoro-4-morpholinylphenyl)-2-oxo-5-oxazolidinyl]methyl]-4-(4-methylphenyl)-4-oxobutanamide] | 8 µg/mL (≈ 17 µM) | –
O=C(C=CC(=O)c1ccccc1)NC[C@H]1CN(c2ccc(N3CCOCC3)c(F)c2)C(=O)O1 [Compound 34, (S)-N-[[3-(3-fluoro-4-morpholinylphenyl)-2-oxo-5-oxazolidinyl]methyl]-4-oxo-4-phenylbut-2-enamide] | >16 µg/mL | –
O=C(CCC(=O)c1cccs1)NC[C@H]1CN(c2ccc(-c3nc[nH]n3)c(F)c2)C(=O)O1 [Compound 47, (S)-N-[[3-(3-fluoro-4-(1,2,4-triazolyl)phenyl)-2-oxo-5-oxazolidinyl]methyl]-4-oxo-4-(2-thienyl)butanamide] | – | MIC: 2 to 4 µg/mL (≈ 4.51 to 9.02 µM)
(S)-N-[[3-(3-fluoro-4-(1,2,4-triazolyl)phenyl)-2-oxo-5-oxazolidinyl]methyl]-4-(2′,2′-dimethyl-4-ethylphenyl)-4-oxobutanamide [Compound 45] | 2 to 4 µg/mL | –
CSc1ccc(C(=O)CCC(=O)NC[C@H]2CN(c3ccc(N4CCOCC4)c(F)c3)C(=O)O2)cc1 [Compound 21, (S)-N-[[3-(3-fluoro-4-morpholinylphenyl)-2-oxo-5-oxazolidinyl]methyl]-4-oxo-4-(4-thiomethyl)phenylbutanamide] | 0.5(>16) μg/ml | –
O=C(CCC(=O)c1ccc2ccccc2c1)NC[C@H]1CN(c2ccc(N3CCOCC3)c(F)c2)C(=O)O1 [Compound 16, (S)-N-[[3-(3-fluoro-4-morpholinylphenyl)-2-oxo-5-oxazolidinyl]methyl]-4-(4-2-naphthyl)-4-oxobutanamide] | 0.5(>16) μg/ml | –
Cc1ccc(C(=O)CCC(=O)NC[C@H]2CN(c3ccc(-c4nc[nH]n4)c(F)c3)C(=O)O2)c(C)c1 [Compound 43, (S)-N-[[3-(3-fluoro-4-(1,2,4-triazolyl)phenyl)-2-oxo-5-oxazolidinyl]methyl]-4-(2,4-dimethylphenyl)-4-oxobutanamide] | – | MIC: 1 to 2 µg/mL (≈ 2.15 to 4.3 µM)
O=C(CCC(=O)c1cccs1)NC[C@H]1CN(c2ccc([N+]3([O-])CCOCC3)c(F)c2)C(=O)O1 [Compound 31, (S)-N-[[3-(3-fluoro-4-morpholinylphenyl)-2-oxo-5-oxazolidinyl]methyl]-4-oxo-4-(2-thienyl)butanamide-N-oxide] | 1 to 4 µg/mL | –
CSc1ccc(C(=O)CCC(=O)NC[C@H]2CN(c3ccc(N4CCCC4)c(F)c3)C(=O)O2)cc1 [Compound 56, (S)-N-[[3-(3-fluoro-4-pyrrolidinylphenyl)-2-oxo-5-oxazolidinyl]methyl]-4-oxo-4-(4-thiomethylphenyl)butanamide] | >16 µg/mL | –
O=C(CCC(=O)c1ccc2ccccc2c1)NC[C@H]1CN(c2ccc(N3CCCC3)c(F)c2)C(=O)O1 [Compound 57, (S)-N-[[3-(3-fluoro-4-pyrrolidinylphenyl)-2-oxo-5-oxazolidinyl]methyl]-4-(2-naphthyl)-4-oxobutanamide] | >16 µg/mL | –
O=C(CCC(=O)c1ccc(Cl)cc1)NC[C@H]1CN(c2ccc(-n3nnc4ccccc43)c(F)c2)C(=O)O1 [Compound 39, (S)-N-[[3-(3-fluoro-4-benzotriazolylphenyl)-2-oxo-5-oxazolidinyl]methyl]-4-(4-chlorophenyl)-4-oxobutanamide] | 2 to 8 µg/mL | –
(S)-N-[[3-(3-fluoro-4-morpholinylphenyl)-2-oxo-5-oxazolidinyl]methyl]-4-[4-(2′,2′-dimethyl-4-ethylphenyl)-4-oxobutanamide [Compound 20] | 2 to 4 µg/mL | –
CC(=O)NC[C@H]1CN(c2ccc(N3CCOCC3)c(F)c2)C(=O)O1 [Linezolid, (S)-N-[[3-[3-fluoro-4-(4-morpholinyl)phenyl]-2-oxo-5-oxazolidin-yl]methyl]-acetamide, reference compound] | – | MIC: 1 to 2 µg/mL (≈ 2.96 to 5.93 µM)
O=C(CCC(=O)c1ccc2ccccc2c1)NC[C@H]1CN(c2ccc(-c3nc[nH]n3)c(F)c2)C(=O)O1 [Compound 48, (S)-N-[[3-(3-fluoro-4-(1,2,4-triazolyl)phenyl)-2-oxo-5-oxazolidinyl]methyl]-4-(2-naphthyl)-4-oxobutanamide] | – | MIC: 2 to 8 µg/mL (≈ 4.1 to 16.4 µM)

Compound | MIC against Clinical isolates Resistant | other results
O=C(CCC(=O)c1cccs1)NC[C@H]1CN(c2ccc(N3CCCC3)c(F)c2)C(=O)O1 [Compound 28, (S)-N-[[3-(3-fluoro-4-pyrrolidinylphenyl)-2-oxo-5-oxazolidinyl]methyl]-4-oxo-4-(2-thienyl)butanamide] | 2 to 8 µg/mL | –
CC(C)Cc1ccc(C(=O)CCC(=O)NC[C@H]2CN(c3ccc([N+]4([O-])CCOCC4)c(F)c3)C(=O)O2)cc1 [Compound 33] | 0.5 to 2 µg/mL | –
O=C(CCC(=O)c1ccccc1)NC[C@H]1CN(c2ccc(N3CCSCC3)c(F)c2)C(=O)O1 [Compound 8, (S)-N-[[3-(3-fluoro-4-thiomorpholinylphenyl)-2-oxo-5-oxazolidinyl]methyl]-4-oxo-4-phenylbutanamide] | 2 to 4 µg/mL | –
CC(=O)Nc1ccc(C(=O)CCC(=O)NC[C@H]2CN(c3ccc(N4CCCCC4)c(F)c3)C(=O)O2)cc1 [Compound 54, (S)-N-[[3-(3-fluoro-4-piperidylphenyl)-2-oxo-5-oxazolidinyl]methyl]-4-(4-acetamidophenyl)-4-oxobutanamide] | >16 µg/mL | –
O=C(CCC(=O)c1cccs1)NC[C@H]1CN(c2ccc(N3CCOCC3)c(F)c2)C(=O)O1 [Compound 19, (S)-N-[[3-(3-fluoro-4-morpholinylphenyl)-2-oxo-5-oxazolidinyl]methyl]-4-oxo-4-(2-thienyl)butanamide] | 2 µg/mL (≈ 4.33 µM) | –
COc1ccc(C(=O)CCC(=O)NC[C@H]2CN(c3ccc(N4CCOCC4)c(F)c3)C(=O)O2)cc1 [Compound 13, (S)-N-[[3-(3-fluoro-4-morpholinylphenyl)-2-oxo-5-oxazolidinyl]methyl]-4-(4-methoxyphenyl)-4-oxobutanamide] | 2 to 4 µg/mL | –
(S)-N-[[3-(3-fluoro-4-(1,2,4-triazolyl)phenyl)-2-oxo-5-oxazolidinyl]methyl]-4-oxo-4-phenylbutanamide [Compound 40] | 1 to 2 µg/mL | –
O=C(CCC(=O)c1ccc(Cl)cc1)NC[C@H]1CN(c2ccc(-c3nc[nH]n3)c(F)c2)C(=O)O1 [Compound 49, (S)-N-[[3-(3-fluoro-4-(1,2,4-triazolyl)phenyl)-2-oxo-5-oxazolidinyl]methyl]-4-(4-chlorophenyl)-4-oxobutanamide] | – | MIC: 4 to 16 µg/mL (≈ 8.48 to 33.9 µM)
CCCc1ccc(C(=O)CCC(=O)NC[C@H]2CN(c3ccc(-c4nc[nH]n4)c(F)c3)C(=O)O2)c(C)c1 [Compound 46, (S)-N-[[3-(3-fluoro-4-(1,2,4-triazolyl)phenyl)-2-oxo-5-oxazolidinyl]methyl]-4-(2′-methyl-4-propylphenyl)-4-oxobutanamide] | – | MIC: 2 to 8 µg/mL (≈ 4.05 to 16.2 µM)
O=C(CCC(=O)c1ccc(Cl)cc1)NC[C@H]1CN(c2ccc(N3CCCCC3)c(F)c2)C(=O)O1 [Compound 36, (S)-N-[[3-(3-fluoro-4-piperidylphenyl)-2-oxo-5-oxazolidinyl]methyl]-4-(4-chlorophenyl)-4-oxobutanamide] | 4 to 8 µg/mL | –
Cc1ccc(C(=S)CCC(=O)NC[C@H]2CN(c3ccc(N4CCOCC4)c(F)c3)C(=O)O2)cc1 [Compound 15, (S)-N-[[3-(3-fluoro-4-morpholinylphenyl)-2-oxo-5-oxazolidinyl]methyl]-4-(4-methylphenyl)-4-thiooxobutanamide] | >16 µg/mL | –
COc1ccc(C(=O)CCC(=O)NC[C@H]2CN(c3ccc(N4CCCCC4)c(F)c3)C(=O)O2)cc1 [Compound 35, (S)-N-[[3-(3-fluoro-4-piperidylphenyl)-2-oxo-5-oxazolidinyl]methyl]-4-(4-methoxyphenyl)-4-oxobutanamide] | 4 to 8 µg/mL | –
Cc1ccc(C(=O)CCC(=O)NC[C@H]2CN(c3ccc(-n4nnc5ccccc54)c(F)c3)C(=O)O2)c(C)c1 [Compound 27, (S)-N-[[3-(3-fluoro-4-benzotriazolylphenyl)-2-oxo-5-oxazolidinyl]methyl]-4-(2,4-dimethylphenyl)-4-oxobutanamide] | >16 µg/mL | –
CSc1ccc(C(=O)CCC(=O)NC[C@H]2CN(c3ccc(-n4cncn4)c(F)c3)C(=O)O2)cc1 [Compound 44, (S)-N-[[3-(3-fluoro-4-(1,2,4-triazolyl)phenyl)-2-oxo-5-oxazolidinyl]methyl]-4-oxo-4-(4-thiomethylphenyl)butanamide] | 1 to 4 µg/mL | –
O=C(CCC(=O)c1ccccc1)NC[C@H]1CN(c2ccc(N3CCOCC3)c(F)c2)C(=O)O1 [Compound 1, (S)-N-[[3-(3-fluoro-4-morpholinylphenyl)-2-oxo-5-oxazolidinyl]methyl]-4-oxo-4-phenylbutanamide] | >16 µg/mL | –
O=C(C=CC(=O)c1ccccc1)NC[C@H]1CN(c2ccc(N3CCCCC3)c(F)c2)C(=O)O1 [Compound 55, (S)-N-[[3-(3-fluoro-4-piperidylphenyl)-2-oxo-5-oxazolidinyl]methyl]-4-oxo-4-phenylbut-2-enamide] | >16 µg/mL | –
